Like-named read-outs stand apart in the source and are kept apart here.
Tests used:
CYP2c13 = biological target: T1, CYP2c13 (Rattus norvegicus, UniProt P20814); experiment: RLM incubation: metabolic clearance rate of mephenytoin (CYP2c13); conditions: RLM 0.5 mg/mL, 30 min 37°C, inhibitor added, blank control 15.97 ± 0.68, n = 3
T1 sequence (P20814 1-490): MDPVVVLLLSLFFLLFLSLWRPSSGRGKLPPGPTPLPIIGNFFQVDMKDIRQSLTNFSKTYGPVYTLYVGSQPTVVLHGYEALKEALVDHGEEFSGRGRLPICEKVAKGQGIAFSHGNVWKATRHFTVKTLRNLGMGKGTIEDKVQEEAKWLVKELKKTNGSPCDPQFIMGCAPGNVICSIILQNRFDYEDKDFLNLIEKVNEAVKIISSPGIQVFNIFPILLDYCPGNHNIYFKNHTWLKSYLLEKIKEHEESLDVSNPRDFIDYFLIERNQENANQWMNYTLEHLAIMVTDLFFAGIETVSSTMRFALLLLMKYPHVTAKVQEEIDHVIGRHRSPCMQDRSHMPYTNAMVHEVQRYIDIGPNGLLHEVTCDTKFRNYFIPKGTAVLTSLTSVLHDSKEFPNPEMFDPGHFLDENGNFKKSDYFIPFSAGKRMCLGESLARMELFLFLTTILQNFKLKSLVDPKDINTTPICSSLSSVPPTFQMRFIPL
Procedure: (§1) The effect of the Zhicaowu–Hezi combination on CYP450 enzymes in RLM was evaluated by assessing the metabolic clearance rates of theophylline, metoprolol, bupropion, mephenytoin (CYP2c13), chlorzoxazone, testosterone, and diclofenac.
(§2) On day 15, the rats were humanely euthanized, and liver tissues were excised for microsomal preparation. […] Livers from each group were repeatedly washed with ice-cold phosphate buffered saline (PBS). […] Subsequently, they were blotted dry with filter paper, weighed, and homogenized by adding 4 mL of ice-cold PBS per gram of liver tissue. The mixture was homogenized in an ice bath. The liver homogenate was subjected to centrifugation at 10,000 RPM for 20 min at 4°C. The resulting supernatant was then combined with an ice-cold 88-mmol/L CaCl2 solution at a 1:1 ratio, and the mixture was homogenized in an ice bath for 5 min. The resulting solution was then centrifuged at 25,000 × g for 30 min at 4°C. The supernatant was discarded and the precipitate was repeatedly resuspended in PBS–20% glycerol buffer. The precipitate was then stored in a separate bottle at −80°C for backup. The protein concentration of the prepared RLM was determined using a bicinchoninic acid protein assay kit.
(§3) Preincubation was conducted for 5 min in a water bath at 37°C, after which NADPH (1 mmol/L) was added, and incubation continued for 30 min at 37°C. Once the incubation period elapsed, the reaction was terminated by the addition of an ice-cold IS-containing acetonitrile solution. The samples were vortexed for 2 min and centrifuged at 15,000 RPM for 10 min. The resulting supernatant was filtered through a 0.22-μm organic microporous membrane, and 20 μL of the filtered solution was injected into the HPLC assay. To prevent the organic solvents from inducing or inhibiting the enzyme, the volume fraction of organic solvents in the entire incubation system was maintained at 1%. […] The inhibitor group was added with corresponding inhibitor, while all other procedures remained identical.

CYP2d2 = biological target: T2, CYP2d2 (Rattus norvegicus, UniProt P10634)
T2 sequence (P10634 1-500): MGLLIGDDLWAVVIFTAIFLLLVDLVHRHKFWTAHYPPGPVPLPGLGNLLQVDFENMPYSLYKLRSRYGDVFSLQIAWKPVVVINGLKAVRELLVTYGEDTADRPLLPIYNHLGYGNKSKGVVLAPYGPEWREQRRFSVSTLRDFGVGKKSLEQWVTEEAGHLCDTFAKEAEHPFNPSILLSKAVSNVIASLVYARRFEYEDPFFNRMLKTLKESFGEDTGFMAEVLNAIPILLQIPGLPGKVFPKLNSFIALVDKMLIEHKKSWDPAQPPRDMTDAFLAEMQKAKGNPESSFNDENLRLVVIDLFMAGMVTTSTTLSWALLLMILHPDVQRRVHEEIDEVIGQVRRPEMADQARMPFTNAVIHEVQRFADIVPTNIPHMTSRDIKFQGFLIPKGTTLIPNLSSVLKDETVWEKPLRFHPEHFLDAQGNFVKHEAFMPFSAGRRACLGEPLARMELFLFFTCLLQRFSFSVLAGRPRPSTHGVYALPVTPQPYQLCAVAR
Procedure: as §1, §2, §3

CYP1a2 = biological target: T3, CYP1a2 (Rattus norvegicus, UniProt P04799); conditions: microsomes
T3 sequence (P04799 1-513): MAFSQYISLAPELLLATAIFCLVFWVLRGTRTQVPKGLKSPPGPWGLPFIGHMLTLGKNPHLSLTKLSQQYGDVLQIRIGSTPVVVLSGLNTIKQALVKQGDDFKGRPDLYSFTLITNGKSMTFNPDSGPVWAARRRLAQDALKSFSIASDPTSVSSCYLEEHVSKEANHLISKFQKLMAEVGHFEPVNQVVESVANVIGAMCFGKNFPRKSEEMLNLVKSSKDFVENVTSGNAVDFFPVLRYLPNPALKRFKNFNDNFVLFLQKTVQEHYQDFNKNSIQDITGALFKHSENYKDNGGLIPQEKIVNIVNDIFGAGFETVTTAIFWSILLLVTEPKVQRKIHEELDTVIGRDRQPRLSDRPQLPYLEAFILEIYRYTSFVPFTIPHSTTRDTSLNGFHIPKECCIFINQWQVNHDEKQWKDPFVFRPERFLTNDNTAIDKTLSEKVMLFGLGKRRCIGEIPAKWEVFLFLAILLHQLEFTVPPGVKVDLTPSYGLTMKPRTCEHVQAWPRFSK
Procedure: as §1, §2, §3

CYP3a1 = biological target: T4, CYP3a1 (Rattus norvegicus, UniProt P04800)
T4 sequence (P04800 1-504): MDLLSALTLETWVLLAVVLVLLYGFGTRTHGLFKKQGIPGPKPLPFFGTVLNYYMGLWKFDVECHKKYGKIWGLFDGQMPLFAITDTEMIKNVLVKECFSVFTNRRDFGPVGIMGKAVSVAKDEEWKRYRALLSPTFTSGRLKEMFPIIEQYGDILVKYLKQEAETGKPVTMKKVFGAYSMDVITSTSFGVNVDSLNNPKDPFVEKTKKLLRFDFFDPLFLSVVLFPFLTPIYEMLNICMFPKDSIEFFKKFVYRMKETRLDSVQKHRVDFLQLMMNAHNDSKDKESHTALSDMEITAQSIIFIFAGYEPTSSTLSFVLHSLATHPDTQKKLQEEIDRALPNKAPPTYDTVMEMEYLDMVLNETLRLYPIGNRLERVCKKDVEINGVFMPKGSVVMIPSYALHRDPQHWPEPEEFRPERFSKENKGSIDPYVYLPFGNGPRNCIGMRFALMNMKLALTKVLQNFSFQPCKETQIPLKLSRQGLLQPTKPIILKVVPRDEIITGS
Procedure: as §1, §2, §3

CYP2b1 = biological target: T5, CYP2b1 (Rattus norvegicus, UniProt P00176); experiment: RLM incubation: metabolic clearance rate of bupropion (CYP2b1); conditions: RLM 0.5 mg/mL, 30 min 37°C, inhibitor added, blank control 7.92 ± 0.60, n = 3
T5 sequence (P00176 1-491): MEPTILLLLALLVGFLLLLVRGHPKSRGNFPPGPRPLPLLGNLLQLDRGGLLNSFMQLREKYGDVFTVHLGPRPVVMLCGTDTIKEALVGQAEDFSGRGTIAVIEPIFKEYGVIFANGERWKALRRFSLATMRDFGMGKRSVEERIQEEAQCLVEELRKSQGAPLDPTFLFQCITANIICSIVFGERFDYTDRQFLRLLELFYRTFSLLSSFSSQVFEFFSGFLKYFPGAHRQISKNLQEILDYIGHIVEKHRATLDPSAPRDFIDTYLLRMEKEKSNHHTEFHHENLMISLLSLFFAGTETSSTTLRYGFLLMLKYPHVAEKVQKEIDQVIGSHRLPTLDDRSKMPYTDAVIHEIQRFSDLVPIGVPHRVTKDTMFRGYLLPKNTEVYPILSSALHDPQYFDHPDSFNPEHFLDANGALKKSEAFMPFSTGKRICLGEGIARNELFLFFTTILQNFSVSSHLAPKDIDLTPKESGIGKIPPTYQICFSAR
Procedure: as §1, §2, §3

CYP2e1 = CYP2e1 (Rattus norvegicus, UniProt P05182); experiment: RLM incubation: metabolic clearance rate of chlorzoxazone (CYP2e1); conditions: RLM 0.5 mg/mL, 30 min 37°C, inhibitor added, blank control 15.80 ± 0.34, n = 3
Sequence of CYP2e1 (P05182 whole entry): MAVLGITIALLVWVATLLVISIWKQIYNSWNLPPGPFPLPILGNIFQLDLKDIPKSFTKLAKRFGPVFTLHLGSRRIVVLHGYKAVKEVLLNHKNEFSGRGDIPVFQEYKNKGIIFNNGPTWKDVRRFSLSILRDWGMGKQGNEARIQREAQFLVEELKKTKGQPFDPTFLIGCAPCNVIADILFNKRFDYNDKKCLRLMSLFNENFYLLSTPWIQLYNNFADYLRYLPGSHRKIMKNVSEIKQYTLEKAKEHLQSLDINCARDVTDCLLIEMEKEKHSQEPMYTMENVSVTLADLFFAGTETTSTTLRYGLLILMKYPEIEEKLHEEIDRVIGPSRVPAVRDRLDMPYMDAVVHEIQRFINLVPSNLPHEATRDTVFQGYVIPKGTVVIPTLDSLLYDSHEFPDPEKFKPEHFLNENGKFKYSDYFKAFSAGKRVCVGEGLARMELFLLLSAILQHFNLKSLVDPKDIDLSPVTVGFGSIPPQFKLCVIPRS
Procedure: as §1, §2
Preincubation was conducted for 5 min in a water bath at 37°C, after which NADPH (1 mmol/L) was added, and incubation continued for 30 min at 37°C. […]

CYP2c11 = biological target: T6, CYP2c11 (Rattus norvegicus, UniProt P08683); conditions: RLM 0.5 mg/mL, 30 min 37°C, inhibitor added, probe diclofenac; blank control 21.12 ± 3.80; n = 3
T6 sequence (P08683 1-500): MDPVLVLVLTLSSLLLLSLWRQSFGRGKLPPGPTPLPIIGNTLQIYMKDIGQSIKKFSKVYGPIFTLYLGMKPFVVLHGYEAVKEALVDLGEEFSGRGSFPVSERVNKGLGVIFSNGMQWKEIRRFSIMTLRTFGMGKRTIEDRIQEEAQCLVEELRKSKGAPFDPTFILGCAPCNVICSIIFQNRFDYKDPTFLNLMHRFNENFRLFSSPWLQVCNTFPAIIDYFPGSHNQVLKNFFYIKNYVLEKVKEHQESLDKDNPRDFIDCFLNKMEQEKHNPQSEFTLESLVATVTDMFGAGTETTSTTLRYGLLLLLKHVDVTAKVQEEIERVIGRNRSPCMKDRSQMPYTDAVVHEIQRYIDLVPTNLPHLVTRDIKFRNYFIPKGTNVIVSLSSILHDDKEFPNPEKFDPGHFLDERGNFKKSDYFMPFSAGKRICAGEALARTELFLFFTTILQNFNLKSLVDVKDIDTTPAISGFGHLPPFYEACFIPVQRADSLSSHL
Procedure: as §1, §2, §3

[1] = Pharmacokinetics of the seven cocktail probe drugs in blank control rats (Group C); conditions: for AUC(0-inf) / AUC(0-t) / CL/F / Cmax / half-life: rat, in vivo, po; for t1/2 z: probe drug in rat plasma, cocktail by gavage, Group C (0.3% CMC-Na 14 d), n = 8
Procedure: The effect of the Zhicaowu–Hezi combination on CYP450 enzymes in rats was evaluated by examining the pharmacokinetics of theophylline (CYP1a2), metoprolol (CYP2d2), bupropion (CYP2b1), omeprazole (CYP2c13), chlorzoxazone (CYP2e1), testosterone (CYP3a1), and diclofenac (CYP2c11).
The collected blood was placed in sodium heparin-treated centrifuge tubes and centrifuged at 4°C for 10 min at 3,000 RPM. […] After 10 min of sedimentation, the supernatant was extracted through a 0.22-μm microporous membrane, 20 μL of which was injected into HPLC. The pharmacokinetic parameters of each probe drug were calculated using the non-atrial compartment model in Drug and Statistics software (DAS, 3.0; Shanghai, China).

[2] = ref Jin et al., 2024, cited from earlier work

Row | Compound | AUC(0-inf) [1] [ng·h/mL] | AUC(0-t) [1] [ng·h/mL] | CL/F [1] [mL/min/kg] | Cmax [1] [ng/mL] | half-life [1] [h] | other results
1 | CC(=O)N1CCN(c2ccc(OCC3COC(Cn4ccnc4)(c4ccc(Cl)cc4Cl)O3)cc2)CC1 (stereo not shown) [Ketoconazole, ketoconazole] | – | – | – | – | – | CYP2c13(%) metabolic clearance rate of probe drug (CYP2c13): 17.26 ± 1.08%; CYP2d2 (%) metabolic clearance rate of probe drug (CYP2d2): 12.73 ± 1.11%; CYP1a2 (%) metabolic clearance rate of probe drug (CYP1a2): 36.04 ± 1.71%; CYP3a1 (%) metabolic clearance rate of probe drug (CYP3a1): 5.45 ± 2.49 %; CYP2b1(%) metabolic clearance rate of probe drug (CYP2b1): 7.11 ± 0.17%
2 | Nc1ccc(S(=O)(=O)Nc2ccnn2-c2ccccc2)cc1 [Sulfaphenazolum] | – | – | – | – | – | CYP2e1 (%) metabolic clearance rate of probe drug (CYP2e1): 16.11 ± 0.18%; CYP2c13(%) metabolic clearance rate of probe drug (CYP2c13): 16.47 ± 1.34%; CYP2d2 (%) metabolic clearance rate of probe drug (CYP2d2; RLM 0.5 mg/mL, 30 min 37°C, inhibitor added, probe metoprolol, blank control […] ± 2.12, n = 3): 13.50 ± 0.30%; CYP2c11(%) metabolic clearance rate of probe drug (CYP2c11): 6.16 ± 0.65 %; CYP3a1 (%) metabolic clearance rate of probe drug (CYP3a1; RLM 0.5 mg/mL, 30 min 37°C, inhibitor added, probe testosterone, blank control 25.04 ± 1.93, n = 3): 25.69 ± 1.69%; CYP2b1(%) metabolic clearance rate of probe drug (CYP2b1): 7.74 ± 0.98%
3 | CC(NC(C)(C)C)C(=O)c1cccc(Cl)c1 (stereo not shown) [bupropion] | 16300 ± 1410 | 15800 ± 1320 | 7.16 | 1300 ± 93 | 18.7 ± 0.948 | –
4 | O=C(O)Cc1ccccc1Nc1c(Cl)cccc1Cl [diclofenac] | 5470 ± 358 | 5230 ± 465 | 42.3 | 1080 ± 115 | 4.98 ± 0.557 | –
5 | CC1(C)[C@@H](O[C@H]2O[C@H](C(=O)O)[C@@H](O)[C@H](O)[C@H]2O[C@@H]2O[C@H](C(=O)O)[C@@H](O)[C@H](O)[C@H]2O)CC[C@]2(C)[C@H]3C(=O)C=C4[C@@H]5C[C@@](C)(C(=O)O)CC[C@]5(C)CC[C@@]4(C)[C@]3(C)CC[C@@H]12 [glycyrrhizin] | – | – | – | – | – | reduction of systemic exposure to aconitine ([2]; glycyrrhizin by intravenous injection): 33%; reduction of systemic exposure to aconitine ([2]; glycyrrhizin by oral gavage): 27%
6 | COCCc1ccc(OCC(O)CNC(C)C)cc1 (stereo not shown) [metoprolol] | 10100 ± 1480 | 9600 ± 988 | 26.3 | 891 ± 114 | 7.95 ± 1.15 | –
7 | COc1ccc2[nH]c([S+]([O-])Cc3ncc(C)c(OC)c3C)nc2c1 (stereo not shown) [omeprazole] | 3900 ± 394 | 3840 ± 372 | 43.4 | 995 ± 78 | – | t1/2 z [1]: 4.689 ± 0.467 h
8 | C[C@]12CC[C@H]3[C@@H](CCC4=CC(=O)CC[C@@]43C)[C@@H]1CC[C@@H]2O [testosterone] | 1410 ± 69 | 1210 ± 81 | 66.8 | 295 ± 54 | 11.1 ± 1.11 | –
9 | Cn1c(=O)c2[nH]cnc2n(C)c1=O [theophylline] | 22500 ± 1440 | 21900 ± 1250 | 7.75 | 1810 ± 94 | – | t1/2 z [1]: 5.273 ± 0.526 h
